Key:
Factor VII = conditions: LNP siRNA systems containing the lipid; hepatocytes in vivo; cited from earlier work
essential genes [1] = experiment: AsCas12a tiling library pooled dropout (viability) screens; type: cell-based, human; parameters: AUC after selecting top half of guides by Seq-DeepCpf1 score: unit not given beside the values; conditions: for guides targeting a TTTT site observed to be active / precision recall area under curve (AUC): A375 viability data; for guides targeting a TTTT site observed to be active: activity cutoff 5th percentile of guides targeting control genes; for precision recall area under curve (AUC): essential gene guides true positives, control gene guides false positives, TTTT PAMs excluded for AsCas12a; for AUC after selecting top half of guides by Seq-DeepCpf1 score: essential and non-essential guides of the tiling screens; for guides active, all guides / guides active, quartile with the highest Seq-DeepCpf1 prediction scores: guides targeting essential genes, cutoff 5th percentile of cell surface control guides
From the text: The AsCas12a library was cloned into a modified version of lentiGuide, pRDA_052, which expresses the guide from a U6 promoter and confers puromycin resistance.

essential genes [2] = experiment: Mismatched guide library off-target dropout screen in A375 cells; conditions: cutoff 5th percentile of controls
Method: Cell lines stably expressing Cas12a were transduced with guides cloned into the pRDA_052 vector in two biological replicates at a low MOI (˜0.5). Transductions were performed with enough cells to achieve a representation of at least 500 cells per guide per replicate, taking into account a 30-50% transduction efficiency. Throughout the screen, cells were split at a density to maintain a representation of at least 500 cells per guide, and cell counts were taken at each passage to monitor growth. Puromycin selection was added 2 days post-transduction and was maintained for 5-7 days. After puromycin selection was complete, each replicate was divided into untreated (i.e. no drug/dropout arms) and small molecule treatment arms, each at a representation of at least 500 cells per guide.
In order to assess the off-target tolerance of AsCas12a, a library of guides intentionally mismatched to their target was constructed. […] Screens were performed in duplicate in A375 cells with dropout, vemurafenib, and 6-thioguanine arms in cells stably expressing 2×NLS-Cas12a and enCas12a.

MAPK1-MAPK3 = experiment: Synthetic lethal (SynLet) multiplexed guide pair screen; type: cell-based, human; conditions: MAPK1-MAPK3, OVCAR8 cells
From the text: For a construct with the ordered elements guide1, DR, guide2, it can be said that the
[formula] where m and β are a fitted slope and intercept. The residual then is the difference between the observed and expected LFCs. Filtering SynLet Libraries
To assess the effectiveness of multiplexing across numerous endogenous genes, a library targeting synthetically lethal (SynLet) gene pairs was designed. […] For As Cas12a, a second guide needed only 43 additional nucleotides. […] Furthermore, the proximity of guides in the enCas12a construct made sequencing and downstream analyses easier.
For each gene in a given pair, up to 20 guides were picked at random, 15 and 5 of which targeted TTTV and TTTT PAMs respectively (FIG. 15A). Pairs were screened in both orientations and the top three direct repeats were used. Thus, each gene pair was assessed with up to 2,400 unique constructs (20 guides×20 guides×2 orientations×3 DRs). […]
To quantitate synergies between guide pairs, an expected phenotype was first calculated by determining the average LFC of each targeting guide when it was coupled with controls (FIG. 29A), and then summing the average LFC for the two guides. […] Finally, the residual from the fit line for all constructs were calculated, where a negative residual indicates a synthetic lethal pair. […]

CD47, CD63, and B2M = experiment: Triple knockout with Cas12a, flow cytometry of cell surface markers in A375 cells; type: cell-based, human; conditions: 6 multiplexed arrays, three timepoints, irrespective of guide position
Method: A375 cells stably expressing enCas12a were transduced with 6 triple knockout arrays, 3 single knockout constructs, and one empty control vector. Two days after transduction, cells were selected with puromycin ([…]), and passaged on puromycin for 7 days. Cells were visualized by flow cytometry on the BDAccuri C6 Sampler system 9, 18, and 25 days post infection. […] Flow cytometry data were analyzed using FlowJo (v10). […] Zero, single, double, and triple knockout populations were quantified using boolean gating in FlowJo.
Using these guides, 6 multiplexed arrays with all possible guide orientations were generated (FIG. 21A-21B). Three single guide constructs, and one empty vector control, and used flow cytometry were also included (FIGS. 31A-31E) to quantify the fraction of cells that were edited or not for all three markers. […] In this internally-controlled assay, EGFP labels cells without enCas12a (and thus no dsDNA breaks) and the fraction of enCas12a-positive, EGFP-negative cells over time was measured by flow cytometry (FIG. 33A). […]

essential genes [3] = experiment: PAM identification by analysis of essential genes in a dropout screen; type: cell-based; conditions: cell lines A375, MelJuSo, A549, OVCAR8, and 7860
[4] = system: target sites preceded by a PAM; experiment: Determination of PAM (plasmid depletion in E. coli); type: cell-based; conditions: N is A/C/G or T
From the text: Determination of PAM can be ensured as follows This experiment closely parallels similar work in E. coli for the heterologous expression of StCas9 (Sapranauskas, R. et al. Nucleic Acids Res 39, 9275-9282 (2011)). Applicants introduce a plasmid containing both a PAM and a resistance gene into the heterologous E. coli, and then plate on the corresponding antibiotic. If there is DNA cleavage of the plasmid, Applicants observe no viable colonies.
In further detail, the assay is as follows for a DNA target. Two E. coli strains are used in this assay. One carries a plasmid that encodes the endogenous effector protein locus from the bacterial strain. The other strain carries an empty plasmid (e.g. pACYC184, control strain). All possible 7 or 8 bp PAM sequences are presented on an antibiotic resistance plasmid (pUC19 with ampicillin resistance gene). The PAM is located next to the sequence of proto-spacer 1 (the DNA target to the first spacer in the endogenous effector protein locus). Two PAM libraries were cloned. One has an 8 random bp 5′ of the proto-spacer (e.g., total of 65536 different PAM sequences=complexity). The other library has 7 random bp 3′ of the proto-spacer (e.g. total complexity is 16384 different PAMs). Both libraries were cloned to have in average 500 plasmids per possible PAM. […]

dystrophin = conditions: 48 weeks; cited from earlier work
[5] = system: target sites with TYCV/CCCC and TATV PAMs; conditions: in vitro and in human cells; cited from earlier work
[6] = system: genome-wide off-target sites; conditions: genome-wide assessment of off-target activity; cited from earlier work

1,2-dilinoleyloxy-keto-N,N-dimethyl-3-aminopropane [DLinKDMA]
potency order of gene silencing (Factor VII): DLinKC2-DMA>DLinKDMA>DLinDMA>>DLinDAP

1×NLS-Cas12a: lx-NLS-Cas12a lentiviral expression construct; Addgene 84750 [reference compound]
guides targeting a TTTT site observed to be active (essential genes [1]): 7%
precision recall area under curve (AUC) (essential genes [1]): 0.61

2×NLS-Cas12a: 2×-NLS-Cas12a lentiviral expression construct
guides targeting a TTTT site observed to be active (essential genes [1]): 7%
precision recall area under curve (AUC) (essential genes [1]): 0.84
AUC after selecting top half of guides by Seq-DeepCpf1 score (essential genes [1]): 0.94
guides active, all guides (essential genes [1]): 47%
guides active, quartile with the highest Seq-DeepCpf1 prediction scores (essential genes [1]): 92%
double mismatch guides active (essential genes [2]): 9%
perfect match guides scoring as active (essential genes [2]): 94%
single mismatch guides active (essential genes [2]): 28%

CCCCC/C=C\C/C=C\CCCCCCCC(=O)OCC(CN(C)C)OC(=O)CCCCCCC/C=C\C/C=C\CCCCC (stereo not shown) [DLinDAP, 1,2-dilineoyl-3-dimethylammonium-propane]
potency order of gene silencing (Factor VII): DLinKC2-DMA>DLinKDMA>DLinDMA>>DLinDAP

CCCCC/C=C\C/C=C\CCCCCCCCOCC(CN(C)C)OCCCCCCCC/C=C\C/C=C\CCCCC (stereo not shown) [DLinDMA, 1,2-dilinoleyloxy-3-N,N-dimethylaminopropane]
potency order of gene silencing (Factor VII): DLinKC2-DMA>DLinKDMA>DLinDMA>>DLinDAP

CCCCC/C=C\C/C=C\CCCCCCCCC1(CCCCCCCC/C=C\C/C=C\CCCCC)OCC(CCN(C)C)O1 (stereo not shown) [DLinKC2-DMA, 1,2-dilinoleyl-4-(2-dimethylaminoethyl)-[1,3]-dioxolane]
potency order of gene silencing (Factor VII): DLinKC2-DMA>DLinKDMA>DLinDMA>>DLinDAP

AsCas12a: Cas12a (Cpf1) effector used for the screens, here in multiplexed guide arrays
guide pairs scored as synthetic lethal (MAPK1-MAPK3): 98%
cells showing editing at all three loci (CD47, CD63, and B2M): approximately 70%
protospacer adjacent motif (PAM) (essential genes [3]): TTTV

AsCpf1: Acidaminococcus sp. BV3L6 Cpf1
PAM preceding the target sites that can be cleaved [4]: TTTV

Eteplirsen
dystrophin positive fibers compared to baseline (average) (dystrophin): 47%

S542R/K548V/N552R: variant of AsCpf1 engineered with the mutations S542R/K548V/N552R
PAMs of target sites that can be cleaved [5]: TATV
DNA targeting specificity [6]: retain a high level of DNA targeting specificity

S542R/K607R: variant of AsCpf1 engineered with the mutations S542R/K607R
PAMs of target sites that can be cleaved [5]: TYCV/CCCC
DNA targeting specificity [6]: retain a high level of DNA targeting specificity

enCas12a: enCas12a lentiviral expression construct; AsCas12a comprising E174R/S542R/K548R mutations
guides targeting a TTTT site observed to be active (essential genes [1]): 57%
precision recall area under curve (AUC) (essential genes [1]): 0.96
EEF2 guides targeting TTTN active (essential genes [1]; EEF2 guides of the tiling library): 62%
non-canonical tier 1 guides active, quartile with highest Seq-DeepCpf1 scores (essential genes [1]; TTTC substituted in silico for the actual PAM): 93%
AUC after selecting top half of guides by Seq-DeepCpf1 score (essential genes [1]): 0.97
guides active, all guides (essential genes [1]): 80%
guides active, quartile with the highest Seq-DeepCpf1 prediction scores (essential genes [1]): 94%
EEF2 guides targeting the other tier 1 PAMs active (essential genes [1]; non-canonical (non-TTTN) PAMs): 68%
double mismatch guides active (essential genes [2]): 16%
perfect match guides scoring as active (essential genes [2]): 91%
single mismatch guides active (essential genes [2]): 54%

Reference: US12264323B2, “CRISPR CPF1 direct repeat variants” (THE BROAD INSTITUTE, INC., priority 2018, dated 2025)
